Source: patent publication US20040023884A1, “Biologically active peptides from functional domains of bactericidal/permeability-increasing protein and uses thereof” (priority 1993, published 2004)
Ends that are not written are not given here.

Key:
[1] = tested on: Candida albicans; type: cell-based
[2] = tested on: multi-resistant strain E. coli 19536; assay: Radial diffusion bactericidal assay, multi-antibiotic resistant E. coli 19536; type: cell-based
Method: These studies were conducted substantially following the procedures used in Example 2.
In order to test the bactericidal activity of BPI peptides against multi-antibiotic resistant E. coli, a multi-resistant strain E. coli 19536 (ampR 16 μg/mL; ceftazidimeR>16 μg/mL; ceftriazoneR>16 μg/mL) was tested. This strain is a clinical isolate obtained from the Baxter Microscan® library (Sacramento, Calif.). An overnight culture of E. coli 19536 was tested as described in Example 2 and part A above. Test BPI peptides were 2-fold serially diluted in D-PBS starting at about 1 mg/mL.

[3] = LPS binding by tryptophan fluorescence quenching
From the text: (§1) The naturally-occurring amino acid tryptophan can emit light (i.e., it fluoresces) having a wavelength between 300 and 400 nm after excitation with light having a wavelength of between about 280 nm and 290 nm, preferably 285 nm. The amount of emitted light produced by such fluorescence is known to be affected by the local environment, including pH and buffer conditions, as well as binding interactions between proteins and other molecules. Some BPI functional domain peptides derived from domains II and III contain tryptophan residues, and tryptophan fluorescence was used to assay binding interactions between the BPI functional domain peptides of the invention and LPS or heparin.
(§2) Tryptophan fluorescence of the BPI functional domain peptides of the invention was determined in the presence or absence of LPS or heparin using a SPEX Fluorolog fluorimeter. Samples were excited with 285 nm light using a 0.25 nm slitwidth. Emission wavelengths were scanned between 300-400 nm using a 1.25 nm slitwidth. Data were accumulated as the average of three determinations performed over an approximately 5 min time span. Samples were maintained at 25° C. or 37° C. during the course of the experiments using a circulating water bath. Crab endotoxin binding protein (CEBP), a protein wherein the intrinsic fluorescence of tryptophan residues is affected by binding to LPS, was used as a positive control. (See Wainwright et al., 1990, Cellular and Molecular Aspects of Endotoxin Reactions, Nowotny et al., eds., Elsevier Science Publishing B.V., The Netherlands, pp. 315-325).
(§3) Kd values were determined by Scatchard-type Stern-Volmer plots of the quenching data as the negative inverse of the slope of such plots. Comparing the data for BPI.10, BPI.46 and BPI.47, it is seen that as the Kd decreased (indicating an increase in avidity for LPS), the percent fluorescence quenching increased. The differences between these peptides include replacement of basic and polar amino acid residues with non-polar residues in […] as compared with BPI.10. In contrast, as the Kd of heparin binding decreased, a corresponding increase in the percentage of fluorescence quenching was not detected.

[4] = Heparin binding by tryptophan fluorescence quenching
From the text: as §1, §2, §3

[5] = tested on: E. coli O86a:K61; assay: Broth bactericidal assay, E. coli O86a:K61; type: cell-based; conditions: FIG. 11j
[6] = tested on: Salmonella typhurium; assay: Radial diffusion bactericidal assay, Salmonella typhurium; type: cell-based; conditions: FIG. 11h
[7] = tested on: E. coli 86a:K61; assay: Bactericidal assay performed in human serum, E. coli O86a:K61; type: cell-based; conditions: FIG. 11l
From the text: FIG. 11l is a graph showing the results of BPI functional domain peptide BPI.30 in bactericidal assays performed in human serum;

[8] = tested on: E. coli O4:K12; assay: Broth bactericidal assay, E. coli O4:K12; type: cell-based; conditions: FIG. 11k
[9] = tested on: E. coli 0111:B4 (smooth); assay: Broth antibacterial assay, E. coli 0111:B4; type: cell-based
Method: In additional experiments, broth antibacterial assays were conducted to further determine the bactericidal activity of certain of the BPI peptides. Specifically, either E. coli J5 (rough) or E. coli 0111:B4 (smooth) bacteria were selected from single colonies on agar plates and used to inoculate 5 mL of Mueller Hinton broth and incubated overnight at 37° C. with shaking. The overnight culture was diluted (˜1:50) into 5 mL fresh broth and incubated at 37° C. to log phase (˜3 hours). Bacteria were pelleted for 5 minutes at 3000 rpm (1500×g). Bacterial pellets were resuspended in 5 mL PBS and diluted to 2×10^6 cells/mL in the Mueller Hinton broth (wherein 1 OD570 unit equals 1.25×10^9 CFU/mL). The BPI functional domain peptides to be tested were diluted to 200 μg/mL in broth and serially diluted 2-fold in 96 well culture plates (100 μL volume). All items were at 2-fold final concentration and experiments were conducted in triplicate. Bacteria were added at 100 μL/well and the plates were incubated on a shaker at 37° C. for a 20 hour period. The plates were then read on an ELISA plate multiple reader at 590 nm. One of the triplicate wells from each peptide concentration was selected for colony forming unit (CFU) determination. A 30 μL aliquot was added to 270 μL of PBS and further ten-fold serial dilutions were performed. Then a 50 μL aliquot was plated on tryptic soy agar and incubated overnight. Colonies were counted and final bacterial concentrations determined. The results of these assays are depicted in FIGS. 9e (for E. coli J5) and 9f (for E. coli 0111:B4).

Question: Which “MIC C. alb” value [1] does the source give for “KSKVGWLIQLFHKK-NH2 (C-terminus assumed) [BPI.13]” here?
Answer: 6.25 µg/mL

Question: For KWKAAARFLKKWKAAARFLK [BPI.48], which “bactericidal activity (in words)” value [2] is on record?
Answer: activity against multi-antibiotic resistant E. coli

Question: What about the “Quenching LPS” value [3] of the same substance?
Answer: 62%

Question: And the Kd ([3]; Stern-Volmer plots)?
Answer: 83 nM

Question: And the “Quenching Heparin” value [4]?
Answer: 41%

Question: And the Kd ([4]; Stern-Volmer plots)?
Answer: 800 nM

Question: For “KWKAQKRFLKKSKVGWLIQLFHKK-NH2 (C-terminus assumed) [BPI.30]”, which “bactericidal activity (in words)” value [5] is on record?
Answer: showed bactericidal activity

Question: What about the “bactericidal activity (in words)” value [6] of the same substance?
Answer: showed bactericidal activity

Question: What about the “bactericidal activity (in words)” value [7] of the same substance?
Answer: showed bactericidal activity

Question: And the “bactericidal activity (in words)” value [8]?
Answer: showed bactericidal activity

Question: Which “bactericidal activity (in words)” value [9] does the source give for “KWKAQKRFLKKWKAQKRFLK-NH2 (C-terminus assumed) [BPI.7]” here?
Answer: significant bactericidal activity

Question: Which “bactericidal activity (in words)” value [9] does the source give for NVGLKFSISNANIKISGKWKAQKRFLK [BPI.3] here?
Answer: less activity
